The values below come from patent publication US8513236B2 (Laurus Labs Private Limited, priority 2010, dated 2013).

One data set has as its system hyperglycemic rats. The settings on record: cited from earlier work.
Data set [1] in a line: Relative humidity stability at ambient temperature, analyzed by XRPD. It is filed as physicochemical. The source says: Upon completion of the duration allowed, the samples were immediately analyzed by XRPD.
A further data set relates to cancer cell lines. To be noted: in vitro; cited from earlier work.
The conditions of data set [2]: cited from earlier work.
For data set [3] the following is noted: cited from earlier work. This is another data set of the same source.
Data set [4] can be described thus: Slurrying in water, resulting solid form. Type of data set: physicochemical. The settings on record: for result of slurrying in water: three days.
Data set [5] can be described thus: Intrinsic dissolution in 900 mL water at ambient conditions (attempted). It is filed as physicochemical. The settings on record: after 30 minutes. On the procedure: Intrinsic dissolution in 900 mL water at ambient conditions was also attempted. […] Therefore, a concentration vs. time and intrinsic dissolution rate value were unobtainable at these conditions.

Entries after “also recorded” stand apart in the source; their conditions may differ.

For `CN(C)C(=N)N=C(N)N` [metformin], in the data set with hyperglycemic rats, the “decreased plasma glucose levels” value is given as 48%.
Turning to `COc1cc(/C=C/c2ccc(O)cc2)cc(OC)c1` [pterostilbene, trans-3,5-dimethoxy-4′-hydroxystilbene], the Results result in data set [1] (75% RH, 4 weeks) is “pterostilbene (Form I)”; in data set [1] (94% RH, 4 weeks) it was “pterostilbene (Form I)”; in data set [1] (98% RH, 4 weeks), “pterostilbene (Form I)”. Moreover, the “cytotoxic activity against cancer cell lines” value with cancer cell lines is listed as “cytotoxic activity”. In data set [2], the solubility in water entry is “poor solubility in water”. Further, the bioavailability result in data set [3] was “poor bioavailability”.
For the compound `Cn1c(=O)c2c(ncn2C)n(C)c1=O` [caffeine], the Results entry in data set [1] (75% RH, 1 week) was “caffeine anhydrous”; in data set [1] (75% RH, 4 weeks), “does not display signs of conversion; also recorded: caffeine anhydrous”; in data set [1] (75% RH, 1 day) it was “caffeine anhydrous”; in data set [1] (75% RH, 3 days), “caffeine anhydrous”; in data set [1] (94% RH, 1 week (7 days)), “caffeine hydrate”; in data set [1] (94% RH, 4 weeks) it was “caffeine hydrate”. In addition, the Results result in data set [1] (94% RH, 1 day) is “caffeine anhydrous”; in data set [1] (94% RH, 3 days) it was “caffeine anhydrous/caffeine hydrate”; in data set [1] (98% RH, 1 week), “caffeine hydrate”; in data set [1] (98% RH, 4 weeks) it was “caffeine hydrate”; in data set [1] (98% RH, 1 day) it was “caffeine hydrate”; in data set [1] (98% RH, 3 days) it was “caffeine hydrate”. Also, the conversion to hydrate entry in data set [1] (94% RH, between one and three days) is reported as “partial conversion”; in data set [1] (98% RH, in less than one day), “converts to caffeine hydrate”.
For `COc1cc(/C=C/c2ccc(O)cc2)cc(OC)c1.Cn1c(=O)c2c(ncn2C)n(C)c1=O` [cocrystal 1 (Form I), pterostilbene:caffeine], the Results result in data set [1] (75% RH, 1 week) is “cocrystal 1 (Form I), no caffeine hydrate”; in data set [1] (75% RH, 1 week, additional stress at 98% RH) it was “cocrystal 1 (Form I), no caffeine hydrate”; in data set [1] (75% RH, 4 weeks), “cocrystal 1 (Form I), no caffeine hydrate”; in data set [1] (75% RH, 1 day) it was “cocrystal 1 (Form I), no caffeine hydrate”; in data set [1] (75% RH, 1 day, additional stress at 98% RH) it was “cocrystal 1 (Form I), no caffeine hydrate”; in data set [1] (75% RH, 3 days), “cocrystal1 (Form I), no caffeine hydrate”. The Results result in data set [1] (94% RH, 1 week (7 days)) is “cocrystal 1 (Form I), no caffeine hydrate”; in data set [1] (94% RH, 4 weeks), “cocrystal 1 (Form I), no caffeine hydrate”; in data set [1] (94% RH, 1 day), “cocrystal 1 (Form I), no caffeine hydrate”; in data set [1] (94% RH, 3 days), “cocrystal 1 (Form I), no caffeine hydrate”; in data set [1] (94% RH, 7 days, additional stress at 98% RH, 4 weeks) it was “cocrystal 1 (Form I), no caffeine hydrate”; in data set [4] (slurry, 2 days), “cocrystal 1 (Form I), no caffeine hydrate”. The “result of slurrying in water” value in data set [4] is “precipitation of pterostilbene”.
Consider “pterostilbene:carbamazepine [cocrystal 2]”, for which the “result of slurrying in water” value in data set [4] is recorded as “stable”.
`COc1cc(/C=C/c2ccc(O)cc2)cc(OC)c1.Cn1c(=O)c2c(ncn2C)n(C)c1=O` [cocrystal 1, pterostilbene:caffeine]: the Results entry in data set [1] (75% RH, 4 weeks) is “no dissociation”; in data set [1] (94% RH, 4 weeks), “no dissociation”; in data set [1] (98% RH, 4 weeks), “no dissociation”.
Regarding “pterostilbene:glutaric acid [cocrystal 3]”, the Results entry in data set [1] (75% RH, 4 weeks) is “no dissociation”; in data set [1] (94% RH, 4 weeks), “no dissociation”; in data set [1] (98% RH, 4 weeks), “no dissociation”. Further, the “XRPD results when slurrying in water at ambient” value in data set [4] (after 5 minutes) is “crystalline pterostilbene”. For the same compound, the “XRPD results, intrinsic dissolution” value in data set [5] is listed as “crystalline pterostilbene”.
